Measured values: US9849145B2, “Pharmaceutical composition containing honeysuckle extract and antibiotics, pharmaceutical kit, and use of honeysuckle extract for preparation of drug” (priority 2011, dated 2017)
Values joined by “and” are separate entries in the source; they are usually repeats but may differ in a detail not shown here. Identical values can stand only once.

Tests used:
Klebsiella pneumoniae [1] = assay: Bacterial inhibition test of antibiotics, Klebsiella pneumoniae; format: cell-based; conditions: 2-fold dilutions from 1 mg/mL to 1:2048; 37° C. 20 h; 630 nm
Experimental: In this example, bacterial inhibition effects of antibiotics on the four multiple resistant bacteria in Tables 1-4 were measured.
The activated bacterium suspension was diluted to a concentration equivalent to 0.5 McFarland turbidity standard, and diluted with the culture medium of MH broth in a proportion of 1:1000, and then added into each well in amount of 100 μL per well.
The antibiotics resisted by the above four multiple resistant bacteria were diluted to 1:2048 (2^−11) from 1 mg/mL (initial concentration) by 2-fold dilution, and then the original solution and different concentrations of diluted antibiotics were added respectively into the well containing the bacterium suspension, with each well added with 100 μL, and the minimum inhibitory concentration (MIC) of each antibiotic was recorded finally.
Meanwhile, a bacterium solution control (that is, bacterium solution plus an equal volume of culture medium) and a blank culture medium control were set.
Cultivation was performed at 37° C. for 20 h, and detection was performed at 630 nm by the microplate reader, and the bacterial inhibition rate is calculated according to formula (2), and the data obtained is put into formula (1) to calculate specific distance, and the specific distance is added to the virus dilution index with pathologic rate less than 50% to obtain half inhibitory concentration (Reed-Muench method). […]

[2] = test system: AMP-resistant Klebsiella pneumoniae; assay: AMP-resistant bacterium infection model in mice (mortality, intraperitoneal colony count); format: in vivo, KM mice; conditions: for protection / control of infection by AMP alone (in words): AMP-resistant bacterium infection model-AMP intervention control group
Description: This example studies the antimicrobial effects in vivo of the honeysuckle extracts N1 to N4 which are respectively combined with antibiotics, and the antimicrobial effects were compared with that of the honeysuckle water decoction W combined with the antibiotic.
The experimental strain is Klebsiella pneumoniae which was isolated from the sputum specimen of the patient in the ward of the Fourth People's Hospital of Jinan in 2010, and detection of the drug resistant spectrum is shown in Table 6 below.
(§1) KM mice were purchased from the Experimental Animal Center of Shandong University, weighing 16-18 g, with half male and half female and animal license number of SCXK (Lu) 20090001.
(§2) There were 5 control groups with 10 mice in each group: normal control group, AMP-sensitive bacterium quality control model control group (AMPS) and the treatment group thereof, AMP-resistant bacterium model control group (AMPR) and the treatment group thereof;
There were 15 experimental groups with 10 mice in each group: N1 to N4 and W were respectively combined with AMP high-dose group, AMP medium-dose group and AMP low-dose group.
(§3) After being grouped, the animals were injected intraperitoneally with 2.5×10^7 (Klebsiella pneumoniae)*100 μL^−1 per animal, then immediately treated by administration, and the route of administration alternated between tail intravenous injection and intraperitoneal injection (the sterile normal saline was used as the solvent for drugs except W, since continuous tail intravenous injection causes damage to tail veins, therefore the tail intravenous injection and intraperitoneal injection were performed alternatively), the animal was injected once a day for 5 days continuously. The efficacy of each group was evaluated according to the animal mortality and intraperitoneal bacterial count.
(§4) Intraperitoneal bacterium counting of dead animals: the animals were injected intraperitoneally with 1 ml sterile normal saline immediately after they died, and the abdomens of the animals were kneaded gently for 1 min, the ascites was drawn and coated on the plate after gradient dilution, and cultured at 37° C. overnight, then the colonies were counted;
(§5) Intraperitoneal bacterium counting of surviving animals: the mice were administrated continuously for 5 days and sacrificed through dislocation 2 h after the last administration, then the mice were injected intraperitoneally with 1 ml sterile normal saline, and the abdomens of the mice were kneaded gently for 1 min, the ascites was drawn and coated on the plate after gradient dilution, and cultured at 37° C. overnight, then the colonies were counted, colony count results of the control groups are shown in table 9 below, and colony count results of the experimental groups are shown in table 10 below.

AMP-sensitive strain = assay: AMP-sensitive bacterium infection model in mice (quality control); format: in vivo, KM mice; conditions: for protection / control of infection by AMP alone (in words): AMP-sensitive bacterium infection model-AMP intervention control group
Description: The control strain is clinically isolated AMP-sensitive strain, which was isolated from the sputum specimen of the patient in the ward of the Fourth People's Hospital of Jinan in 2010, and preserved until today.
as §1, §2, §3, §4, §5

Klebsiella pneumoniae [3] = test system: Klebsiella pneumoniae; design: key: Resistant; Sensitive; Intermediate degree (moderate resistance); conditions: clinical isolate, specimen 31853, urine; cited from earlier work
Escherichia coli = test system: Escherichia coli; design: key: Resistant; Sensitive; Intermediate degree (moderate resistance); conditions: clinical isolate, specimen 32042, urine; cited from earlier work
Pseudomona aeruginosa = test system: Pseudomona aeruginosa; design: key: Resistant; Sensitive; Intermediate degree (moderate resistance); conditions: clinical isolate, specimen 12; cited from earlier work
Klebsiella pneumoniae [4] = test system: Klebsiella pneumoniae; design: key: Resistant; Sensitive; Intermediate degree (moderate resistance); conditions: clinical isolate, specimen 31494, sputum; cited from earlier work
[5] = AMP intervention control group: AMP 16.80 mg per mouse alone, n = 10
[6] = AMP-sensitive bacterium model, AMP 16.80 mg per mouse alone, n = 10

CC1(C)S[C@@H]2[C@H](NC(=O)[C@H](N)c3ccccc3)C(=O)N2[C@H]1C(=O)O [AMP, ampicillin]
bacterial inhibition effect of the antibiotic (Klebsiella pneumoniae [1]): inhibitory effect on Klebsiella pneumoniae in the first two dilutions (1 mg/mL, 0.5 mg/mL)
Mortality (%) [2, 5]: 100%
Number of deaths 1st day [2, 5]: 0
Number of deaths 2nd day [2, 5]: 7
Number of deaths 3rd day [2, 5]: 2
Number of deaths 4th day [2, 5]: 1
Number of deaths 5th day [2, 5]: 0
Number of deaths Total [2, 5]: 10
protection / control of infection by AMP alone (in words) [2]: cannot be protected (all of animals died)
protection / control of infection by AMP alone (in words) ([2]; listed as ampicillin): cannot be controlled by ampicillin
Bacterium isolation positive rate (%) ([2]; AMPR model, AMP 16.80 mg per mouse alone): 100%
Intraperitoneal colony count of animals ([2]; AMPR model, AMP 16.80 mg per mouse alone, one value per mouse Nos. 1-10, unit not given in Table 9 (Table 10 note: CFU/mL)): 3.557 × 10^10 and 3.478 × 10^10 and 3.578 × 10^10 and 3.487 × 10^10 and 3.550 × 10^10 and 3.373 × 10^10 and 3.360 × 10^10 and 6.617 × 10^9 and 4.800 × 10^9 and 5.467 × 10^9
protection / control of infection by AMP alone (in words) (AMP-sensitive strain): protected effectively
protection / control of infection by AMP alone (in words) (AMP-sensitive strain; listed as ampicillin): sensitive to ampicillin
Mortality (%) (AMP-sensitive strain; [6]): 0%
Number of deaths 1st day (AMP-sensitive strain; [6]): 0
Number of deaths 2nd day (AMP-sensitive strain; [6]): 0
Number of deaths 3rd day (AMP-sensitive strain; [6]): 0
Number of deaths 4th day (AMP-sensitive strain; [6]): 0
Number of deaths 5th day (AMP-sensitive strain; [6]): 0
Number of deaths Total (AMP-sensitive strain; [6]): 0
Bacterium isolation positive rate (%) (AMP-sensitive strain; AMPS model, AMP 16.80 mg per mouse alone): 10%
Intraperitoneal colony count of animals (AMP-sensitive strain; AMPS model, AMP 16.80 mg per mouse alone, one value per mouse Nos. 1-10, unit not given in Table 9 (Table 10 note: CFU/mL)): 1.054 × 10^1 and 0 (9×)
resistance of Klebsiella pneumoniae to the antibiotic (Klebsiella pneumoniae [3]): R
resistance of Escherichia coli to the antibiotic (Escherichia coli): R
resistance of Pseudomona aeruginosa to the antibiotic (Pseudomona aeruginosa): R
drug resistant spectrum of the experimental strain of Klebsiella pneumoniae (Klebsiella pneumoniae [4]): R
